In general, IC50 refers to the concentration at which inhibition is half-maximal. Low readings indicate higher potency, high ones lower potency. As usually defined, the Ki is a measure of affinity in units of concentration, obtained from inhibition or displacement. Higher therefore signals a looser hold on the target. A word on the IC90: it is the concentration at which the effect reaches the 90% level. Read a high IC90 as a need for much substance.

The test system of data set [1] is CCRF-CEM. Description: Inhibitory activity against CEM cells. It is filed as functional, cell-based. The note with it: Homo sapiens.
Data set [2] deals with Human immunodeficiency virus type 1 protease (Human immunodeficiency virus 1, UniProt Q72874). Nature of the data set: Inhibitory activity HIV-1 protease enzyme.
The nature of data set [3]: Oral availability was tested for plasma levels at a dose of 40 mg/kg, after 6 hr of in fed fisher rats. It is filed as ADME, organism-based. Details: dose 40 mg/kg. The note with it: Fischer, rat, read-out: Oral availability.
In data set [4] the target is Human immunodeficiency virus type 1 protease (Human immunodeficiency virus 1) (UniProt Q72874). Nature of the data set: Concentration required for the inhibition against HIV-protease enzyme at a dose of 40 mg/kg in fed fisher rats. Details: dose 40 mg/kg. The data set is classed as organism-based.

Each structure is given as a SMILES string. ≈ marks a conversion by molar mass, not a printed value.

Take `Cc1c(C(=O)N[C@@H](CSc2ccc3ccccc3c2)[C@H](O)Cc2ccccc2C(=O)NC(C)(C)C)cccc1[N+](=O)[O-]`: in data set [1], the IC50 was greater than 50 µg/mL. Further, the Ki in data set [2] is 540 nM.
In the same order, the values of `CC(C)(C)NC(=O)c1ccccc1C[C@@H](O)[C@H](CSc1ccc2ccccc2c1)NC(=O)c1ccnc2ccccc12` are 5.6 µg/mL (≈ 9.69 µM) and 265 nM.
In the same order, the values of `Cc1ccc(N)cc1C(=O)N[C@@H](CSc1ccc2ccccc2c1)[C@H](O)Cc1ccccc1C(=O)NC(C)(C)C` are 1.3 µg/mL (≈ 2.34 µM) and 17 nM.
In the same order, the values of `Cc1c(N)cc(N)cc1C(=O)N[C@@H](CSc1ccc2ccccc2c1)[C@H](O)Cc1ccccc1C(=O)NC(C)(C)C` are 0.46 µg/mL (≈ 0.806 µM) and 5 nM.
Turning to `CC(C)(C)NC(=O)c1ccccc1C[C@@H](O)[C@H](CSc1ccc2ccccc2c1)NC(=O)c1cccc(N)c1Cl`, in data set [1], the half-inhibitory concentration (IC50) is 1.5 µg/mL (≈ 2.6 µM). The compound also came in with a Ki in data set [2] of 16 nM.
In the same order, the values of `CC(C)(C)NC(=O)c1ccccc1C[C@@H](O)[C@H](CSc1ccc2ccccc2c1)NC(=O)c1cccc2[nH]ccc12` are 6.6 µg/mL (≈ 11.7 µM) and 164 nM.
As to `Cc1ccc(O)cc1C(=O)N[C@@H](CSc1ccc2ccccc2c1)[C@H](O)Cc1ccccc1C(=O)NC(C)(C)C`, the Ki in data set [2] turned out to be 500 nM.
As for `CC(C)(C)NC(=O)c1ccccc1C[C@@H](O)[C@H](CSc1ccc2ccccc2c1)NC(=O)c1cccc2c1CCNC2`, the IC50 in data set [1] was greater than 50 µg/mL. This compound also yielded a Ki in data set [2] of 180 nM.
`CC(C)(C)NC(=O)c1ccccc1C[C@@H](O)[C@H](CSc1ccc2ccccc2c1)NC(=O)c1cccc2c1CCN2`: the IC50 in data set [1] was greater than 50 µg/mL. This compound gave an inhibition constant (Ki) in data set [2] of 166 nM.
On to `CC(C)(C)NC(=O)c1ccccc1C[C@@H](O)[C@H](CSc1ccc2ccccc2c1)NC(=O)c1cccc(O)c1Cl`, for which the Ki in data set [2] amounted to 15 nM.
`CC(C)(C)NC(=O)c1ccccc1C[C@@H](O)[C@H](CSc1ccc2ccccc2c1)NC(=O)c1cccc(N)c1Br` came in with an IC50 in data set [1] of 1.6 µg/mL (≈ 2.58 µM). In data set [2], this compound yielded a Ki of 33 nM.
With `Cc1c(N)cccc1C(=O)N[C@@H](CSc1ccc2ccccc2c1)[C@H](O)Cc1ccccc1C(=O)NC(C)(C)C`, the IC50 in data set [1] stood at 5 µg/mL (≈ 9 µM). Further, the affinity in data set [2] corresponds to a Ki of 49 nM.
Consider `Cc1c(O)cccc1C(=O)N[C@@H](Cc1ccccc1)[C@H](O)CN1C[C@H]2CCCC[C@H]2C[C@H]1C(=O)NC(C)(C)C`, for which the IC50 in data set [1] came to 0.01 µg/mL (≈ 0.0187 µM). In addition, the bioavailability in data set [3] came out at 44%. The compound further displayed a Ki in data set [2] of 21 nM. Also, the IC90 in data set [4] was determined as 0.03 µg/mL (≈ 0.056 µM).
`CC(C)(C)NC(=O)c1ccccc1C[C@@H](O)[C@H](CSc1ccc2ccccc2c1)NC(=O)c1cccc2c1CCCN2`: in data set [1], the IC50 stood at 1.9 µg/mL (≈ 3.27 µM). The Ki in data set [2] was 24 nM.
In the same order, the values of `CC(C)(C)NC(=O)c1ccccc1C[C@@H](O)[C@H](CSc1ccc2ccccc2c1)NC(=O)c1cccc2ncccc12` are 5.7 µg/mL (≈ 9.87 µM) and 113 nM.
In the same order, the values of `Cc1c(O)cccc1C(=O)N[C@@H](CSc1ccc2ccccc2c1)[C@H](O)Cc1ccccc1C(=O)NC(C)(C)C` are 0.97 µg/mL (≈ 1.74 µM) and 3 nM.
In the same order, the values of `CC(C)(C)NC(=O)c1ccccc1C[C@@H](O)[C@H](CSc1ccc2ccccc2c1)NC(=O)c1cccc2cnccc12` are 16 µg/mL (≈ 27.7 µM) and 800 nM.

For the origin of these results see ChEMBL document CHEMBL1128867, “Structure-based drug design of nonpeptidic P2 substituents for HIV-1 protease inhibitors” (Bioorg Med Chem Lett, 1995).
